Ten sequences from patent US20130203649A1, “INHIBITORS OF TLR SIGNALING BY TARGETING TIR DOMAIN INTERFACES” (UNIVERSITY OF MARYLAND, BALTIMORE, priority 2012, published 2013) can be followed below.

No end group written: not given here.

Format in all cases: cell-based
Assay [1] addresses T1, TLR2 (Mus musculus, UniProt Q9QUN7).
T1 construct: Primary peritoneal macrophages were obtained by peritoneal lavage; endogenous in cells; host or cells: thioglycollate-elicited mouse peritoneal macrophages
The assay can be described thus: Inhibition of TLR2 signaling in thioglycollate-elicited mouse macrophages (effective concentration, TLR2 agonists P3C/P2C). Conditions: for IL-1β expression induced by TLR2 agonists: P2C and P3C (FIG. 16A, B); for Effective conc.: TLR2 pathway, thioglycollate-elicited mouse macrophages. The procedure:
(§1) C57BL/6J mice were obtained from The Jackson Laboratory (Bar Harbor, Me.). Primary peritoneal macrophages were obtained by peritoneal lavage 4 days after intraperitoneal injection (3 ml) of sterile 3% thioglycolate broth. Washed cells were resuspended in RPMI 1640 which contained 2% FBS, 1% penicillin:streptomycin and 2 mM L-glutamine. After plating, cells were incubated overnight at 37° C. and then washed with PBS to remove non-adherent cells. Cells were exposed to peptides 30 min before stimulation with a TLR agonist.
(§2) Protein-free Escherichia coli K235 LPS was used at final concentration of 10 ng/ml to stimulate cells. S-[2,3-bis(palmitoyloxy)-(2-RS)-propyl]-N-palmitoyl-(R)-Cys-Ser-Lys4-OH (P3C) and S-[2,3-bis(palmitoyloxy)-(2-RS)-propyl]-[R]-Cys-Ser-Lys4-OH (P2C) were purchased from EMC microcollections GmbH (Tubingen, Germany) and used for cell stimulation at 500 and 50 ng/ml, respectively. Phospho-ERK1/2 and phospho-JNK1/2 rabbit Abs were obtained from Cell Signaling Technology, Inc. β-actin rabbit Ab were from SantaCruz Biotechnology, Inc.
(§3) Because of the role TRAP plays in TLR2 signaling, TIRAP TIR-derived decoy peptide effects on TLR2-induced cytokine mRNA expression were examined. Thioglycollate-elicited mouse macrophages were stimulated either by P2C, an agonist that induces signaling through TLR2/TLR6 heterodimerization, or P3C, a TLR2/TLR1 agonist, and effects of TIRAP TR-derived decoy peptides on induction of cytokine mRNA were examined. […] To confirm the inhibitory effect of TR3 and TR6 on P3C-induced signaling, IL-6 and TNF-α concentration was measured in macrophage supernatants collected 5 h after stimulation of cells with P3C. […] Concordantly, both TR3 and TR6 diminished the P3C-induced ERK phosphorylation (FIG. 3D).
(§4) C57BL/6J mice were obtained from The Jackson Laboratory (BarHarbor, Me.). Harvesting, culturing, and stimulation of peritoneal macrophages were described in previous publications (1, 18, 19). Escherichia coli K235 LPS (34) was used at the final concentration of 100 ng/ml. The 2,3-bis(palmitoyloxy)-(2-RS)-propyl-N-palmitoyl-(R)-Cys-Ser-Lys4-OH (P3C) and S[2,3-bis(palmitoyloxy)-(2-RS)-propyl]-[R]-Cys-Ser-Lys4-OH (P2C) (EMC Microcollections, Tubingen, Germany) were used at 500 and 50 ng/ml, respectively. Oligonucleotide (ODN) 1668 and low m.w. polyinosinic-polycytidylic acid [poly(I:C)] in complex with LyoVec were obtained from InvivoGen; these agonists were used at 2.5 μM and 400 ng/ml, respectively.

Assay [2] has as its system TLR4. The assay can be described thus: LPS-induced MAPK (ERK, JNK, p38) activation in mouse macrophages (Western analysis). Particulars: for LPS-induced activation of p38 and ERK MAPKs: 20 μM peptide, LPS 30 min; for LPS-induced activation of ERK and JNK MAPKs: peritoneal macrophages (FIG. 14B). The method, then: Cellular protein extracts were isolated by addition of 240 μL per well cold lysate buffer (20 mM Tris, 50 mM NaCl, 1.5 mM MgCl2, 2 mM EDTA, 10 mM NaF, 2 Mm DTT, 1 mM Na3VO4, 1% Triton). Cells were incubated with lysis solution for 30 min on agitator at 4° C. Lysate was then collected and centrifuged at 14,000 g for 10 minutes at 4° C. After quantification using BioRad protein assay, protein samples were added to Laemmli buffer and then boiled for 10 min. Samples were then resolved by SDS-10% PAGE in Tris/glycine/SDS buffer (25 mM Tris, 250 mM glycine, 0.1% SDS), and transferred onto Immobilon P transfer membranes (Millipore, Bedford, Mass.) (100 V, 1.5 h, 4° C.). Membranes were blocked for 1 h in TBS-T (20 mM Tris-HCl, 150 mM NaCl, 0.1% Tween 20) containing 5% nonfat milk, then probed for overnight at 4° C. with the respective antibodies (Abs) (dilution 1:1000 in TBS-T with 2% BSA). After washing in TBS-T, membranes were incubated with secondary HRP-conjugated, donkey anti-rabbit IgG (1:10,000 dilution in TBS-T with 5% nonfat milk) for 1 h at room temperature. Membranes washed five times in TBS-T before development with ECL reagents (GE Healthcare) according to manufacturer's directions.
HEK293T cells were transfected with indicated plasmids using Superfect Transfection Reagent (Qiagen). Twenty-four hours posttransfection, the cells were lysed using the buffer containing 20 mM HEPES (pH 7.4), 150 mM NaCl, 10 mM NaF, 2 mM Na3VO4, 1 mM EDTA, 1 mM EGTA, 0.5% Triton X-100, 0.1 M DTT, 1 mM PMSF, and protease inhibitor mixture (Roche, Indianapolis, Ind.). Rabbit Ab against phospho-ERK, phospho-JNK, MyD88 (D80F5), STAT1-Y701, total STAT1, and GAPDH were purchased from Cell Signaling Technology (Beverly, Mass.). Rabbit anti-phospho-p38 Ab was purchased from Promega (Madison, Wis.). Goat anti-TLR4 (M−16), rabbit anti-TLR4 (H-80), anti-HA-HRP (F-7), and rabbit anti-b-actin Ab were purchased from Santa Cruz Biotechnology. Mouse anti-Flag M2 and rabbit anti-HA Ab were from Sigma-Aldrich. GFP Ab (A1122) was from Invitrogen. Protein was quantified using Bio-Rad protein quantification kit. Equal amount of protein was loaded and analyzed by 10% SDS-PAGE and immunoblotting. The cell extracts containing equal amount of protein were incubated with 1 μg Ab for 2 h, followed by 4-h incubation with 25 μl protein G agarose beads (Roche); the beads were then washed four times with lysis buffer, boiled in […] sample loading buffer, and analyzed by immunoblotting.
We next examined whether TRAM peptides inhibit the TLR4-mediated p38, ERK, and JNK MAPK activation. Murine macrophages pretreated with peptides for 30 min were challenged with LPS. Cell lysates were collected 30 min post-stimulation and analyzed for MAPK phosphorylation by Western analysis. Consistent with peptide effects on steady-state mRNA, both TM4 and TM6 inhibited activation of all three MAPKs (FIG. 5C). The inhibition of MAPKs by TM4 or TM6 was long lasting; it persisted for at least 1 h after LPS stimulation (data not shown). To characterize further the effects of TRAM peptides on MAPKs, murine macrophages were treated with TRAM peptides, but not challenged by LPS.

The subject of assay [3] is TLR4. The assay can be described thus: Inhibition of TLR4 signaling in thioglycollate-elicited mouse macrophages (effective concentration, overall inhibitory activity). Particulars: TLR4 pathway; thioglycollate-elicited mouse macrophages. The method, then: as §1
TIRAP/Mal functions to facilitate MyD88 recruitment to the activated TLR4 and TLR2, presumably through a simultaneous interaction with receptor and MyD88 TIR domains. Therefore, multiple TIR:TIR interaction sites are expected in TIRAP TIR. The decoy peptide approach was used to obtain leads on the functional protein-protein interfaces within TIRAP/Mal, a TLR adapter protein. To this end, eleven TIRAP TIR-derived decoy peptides were designed to be structurally homologous to the TLR4 TIR-derived decoy peptides used previously (1), so that each peptide represents a non-fragmented patch of the TIRAP TIR surface, with the entire domain encompassed by the set of peptides. The TIRAP TIR-derived decoy peptides were synthesized in tandem with the cell-permeating sequence of Antennapedia homeodomain (21) and each peptide was tested for the ability to inhibit TLR4 and TLR2 signaling in primary mouse macrophages. Peptide sequences and the structural regions they represent are shown in reference (30).
as §4

For assay [4], the system named is TLR4. The assay can be described thus: LPS-induced cytokine mRNA expression in mouse macrophages (real-time RT-PCR). Particulars: for LPS-induced TNF-α and IL-1β mRNA expression: 20 μM peptide 30 min, LPS 1 hour (FIG. 13A); for LPS-induced cytokine mRNA induction: peritoneal macrophages (FIG. 14A). The method, then:
as §1
(§5) Total cellular RNA was isolated using Tripure from Roche (San Francisco, Calif.) following manufacture's protocol. RNA was then reverse transcribed using AMV Reverse Transcriptase from Promega (Madison, Wis.) with poly-T priming as per manufacturer's directions. cDNA was then quantified by real-time PCR using Applied Biosystems Fast SYBR Green PCR Master Mix and an ABI Prism 7500HT cycler. Primers used for detection: hypoxanthine phosphoribosyltransferase (HPRT) (forward: […] (SEQ ID NO:51), reverse: […] (SEQ ID NO:52)), TNFα (forward: […] (SEQ ID NO:53), reverse: […] (SEQ ID NO:54)), IL-1β (forward: […] (SEQ ID NO:55), reverse: […] (SEQ ID NO:56)), IFNβ (forward: […] (SEQ ID NO:57), reverse: CTCGGACCACCATCCAGG (SEQ ID NO:58)) and RANTES (forward: […] (SEQ ID NO:59), reverse: […] (SEQ ID NO:60)). The primers were designed using Primer Express 2.0 (Applied Biosystems). Using HPRT as reference, the ΔCt method was used to calculate relative gene expression. One-way ANOVA was preformed, as well as Dunnett's multiple comparison post hoc test with a p≦0.01 selected as the level of significance.
Total RNA was isolated with Nucleospin RNA II kits (Macherey-Nagel, Bethlehem, Pa.), followed by DNase digestion. cDNA was synthesized from 1 μg RNA using Goscript transcriptase (Promega), and subjected to real-time PCR with gene-specific primers for HPRT, TNF-α, IL-1β, IFNβ, and RANTES on H7900 ABI system using Fast SYBR Green master mix (Applied Biosystems, Foster City, Calif.).
To evaluate peptide-inhibitory activities, we first measured LPS-induced cytokine mRNA expression. […] […] Decoy peptide TM4 is derived from the BB loop of TRAM TIR; we previously identified this peptide as an effective TLR4 inhibitor (19).
In general terms: In qPCR the cycle at which signal appears reflects the starting amount.

Assay [5] concerns the target T2, TLR2/TLR1 heterodimer (Mus musculus, UniProt Q9QUN7).
T2 construct: endogenous in cells; host or cells: thioglycollate-elicited mouse peritoneal macrophages
The assay can be described thus: P3C-induced cytokine mRNA expression in mouse macrophages. Particulars: peptide 30 min; P3C 500 ng/ml 1 hour (FIG. 15A).
From the text: as §5, §2, §3, §4

T1 sequence (Q9QUN7 25-784): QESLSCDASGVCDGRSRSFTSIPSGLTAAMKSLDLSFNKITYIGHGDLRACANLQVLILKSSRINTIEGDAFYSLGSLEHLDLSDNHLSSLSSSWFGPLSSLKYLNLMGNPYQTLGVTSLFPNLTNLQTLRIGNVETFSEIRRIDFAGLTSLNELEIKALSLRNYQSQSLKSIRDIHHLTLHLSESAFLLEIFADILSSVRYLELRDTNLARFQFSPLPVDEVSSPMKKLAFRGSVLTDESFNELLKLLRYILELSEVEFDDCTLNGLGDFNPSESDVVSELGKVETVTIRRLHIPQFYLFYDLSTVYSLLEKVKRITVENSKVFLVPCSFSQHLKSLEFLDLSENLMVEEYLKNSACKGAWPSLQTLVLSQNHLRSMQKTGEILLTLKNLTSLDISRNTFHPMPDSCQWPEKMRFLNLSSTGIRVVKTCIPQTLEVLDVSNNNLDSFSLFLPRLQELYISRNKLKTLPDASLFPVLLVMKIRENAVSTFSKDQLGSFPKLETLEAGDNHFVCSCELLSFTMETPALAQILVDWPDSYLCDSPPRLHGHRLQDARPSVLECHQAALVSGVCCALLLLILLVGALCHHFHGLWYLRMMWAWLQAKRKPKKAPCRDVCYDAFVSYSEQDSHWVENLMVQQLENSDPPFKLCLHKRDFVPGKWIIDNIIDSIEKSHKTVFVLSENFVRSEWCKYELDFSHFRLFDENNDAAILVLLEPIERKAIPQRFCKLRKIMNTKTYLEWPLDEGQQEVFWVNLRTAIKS
T2 sequence (Q9QUN7 25-784, one chain of several): as the sequence (Q9QUN7 25-784) above

Regarding “RQIKIWFQNRRMKWKKLHKRDFVPGKWIID [Peptide 2BB]”, in assay [1], the “IL-1β expression induced by TLR2 agonists” value is reported as “inhibits” and the Effective conc. was 40 µM.
In the case of “RQIKIWFQNRRMKWKKSDRDVLPGTCVWS [Peptide M4]”, the “LPS-induced activation of p38 and ERK MAPKs” value in assay [2] was “inhibit”. The Effective conc. in assay [3] is 20 µM. For the same sequence, the “LPS-induced TNF-α and IL-1β mRNA expression” value in assay [4] is “inhibit”.
On to “RQIKIWFQNRRMKWKKLRQQVELYRLLSR [Peptide 4R9]”, for which the “LPS-induced activation of ERK and JNK MAPKs” value in assay [2] is “potently inhibit”. Further, the Effective conc. in assay [3] is 20 µM. Further, the “LPS-induced cytokine mRNA induction” value in assay [4] is “potently inhibit”.
Turning to “RQIKIWFQNRRMKWKKIASELIEKRCRRM [Peptide M5]”, in assay [2], the “LPS-induced activation of p38 and ERK MAPKs” value is on record as “inhibit”. This sequence also yielded an Effective conc. in assay [3] of 20 µM. In addition, the “LPS-induced TNF-α and IL-1β mRNA expression” value in assay [4] is on record as “inhibit”.
Take “RQIKIWFQNRRMKWKKEEGVPRFHLC [Peptide 4R3]”: in assay [2], the “LPS-induced activation of ERK and JNK MAPKs” value was “potently inhibit”. The same sequence had an Effective conc. in assay [3] of 20 µM. Also, the “LPS-induced cytokine mRNA induction” value in assay [4] is recorded as “potently inhibit”.
On to RQIKIWFQNRRMKWKKEQTDYRLKLC [Peptide M3], for which the “LPS-induced activation of p38 and ERK MAPKs” value in assay [2] was “inhibit”. The Effective conc. in assay [3] came out at 20 µM. In addition, the “LPS-induced TNF-α and IL-1β mRNA expression” value in assay [4] is “inhibit”.
As for “RQIKIWFQNRRMKWKKEPIERKAIPQRFCK [Peptide 2DD-αD]”, in assay [1], the “IL-1β expression induced by TLR2 agonists” value is “potently inhibits” and the Effective conc. is 40 µM.
As to “RQIKIWFQNRRMKWKKAGCKKYSRGESIYD [Peptide 4R1]”, the “LPS-induced activation of ERK and JNK MAPKs” value in assay [2] is listed as “potently inhibit”. This sequence also registered an Effective conc. in assay [3] of 20 µM. Also, in assay [4], the “LPS-induced cytokine mRNA induction” value is recorded as “potently inhibit”.
For the sequence “RQIKIWFQNRRMKWKKHIFWRRLKNALLD [4R11/4αE]”, the “LPS-induced activation of ERK and JNK MAPKs” value in assay [2] is “potently inhibit”. In assay [3], this sequence yielded an Effective conc. of 20 µM. Also, the “LPS-induced cytokine mRNA induction” value in assay [4] is on record as “potently inhibit”.
In the case of “RQIKIWFQNRRMKWKKENSDPPFKLC [Peptide 2R3]”, in assay [5], the “Cytokine mRNA expression induced by P3C” value was “inhibit”. Also, the Effective conc. in assay [1] was 40 µM.
